System: HCC1954 and CAMA1 cells
Assay: Cell growth in 3D culture after shRNA knockdown
Format: cell-based, human
Settings: vs shRNA control

Colony size / cell growth in 3D culture, colonies were much smaller:
#2969 shPPFIA1: PPFIA1 shRNA hairpin, SEQ ID NO: 192 (CCGGGAGGAGATTGAAAGTCGAGTTCTCGAGAACTCGACTTTCAATCTCCTCTTTTT)
#5149 shNEU3: NEU3 shRNA hairpin, SEQ ID NO: 182 (CCGGAGTGACAACATGCTCCTTCAACTCGAGTTGAAGGAGCATGTTGTCACTTTTTT)
#38160 shFGF3: FGF3 shRNA hairpin, SEQ ID NO: 190 (CCGGGAGCTGGGCTATAATACGTATCTCGAGATACGTATTATAGCCCAGCTCTTTTTG)

Reference: patent US20120077694A1, “TARGETS IN BREAST CANCER FOR PROGNOSIS OR THERAPY” (The Regents of the University of California, priority 2006, published 2012)
